Laboratory results from PubChem BioAssay AID180 (DTP/NCI, 2004).
Where “and” joins values, the source holds several entries; their conditions need not be identical. Equal entries are not always repeated.

System: BDF1 mice, Adenocarcinoma 755 s.c., tumor weight T/C
Assay: NCI In Vivo Anticancer Drug Screen. Data for tumor model Adenocarcinoma 755 (subcutaneous) in B6D2F1 (BDF1) mice
Settings: endpoint: mean tumor weight, higher = larger tumour
How it was run: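 Values express treated (T) relative to vehicle-dosed control (C) animals, based on survival or tumour size measured after compound treatment of mice bearing a transplanted tumour.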

[1] = dose: 15.0 mg/kg/injection, schedule: Q01DX011 (ip), vehicle: methylcellulose (MC)
[2] = dose: 30.0 mg/kg/injection, schedule: Q01DX011 (ip), vehicle: methylcellulose (MC)
[3] = dose: 60.0 mg/kg/injection, schedule: Q01DX011 (ip), vehicle: methylcellulose (MC)
[4] = dose: 120.0 mg/kg/injection, schedule: Q01DX011 (ip), vehicle: methylcellulose (MC)
[5] = dose: 60.0 mg/kg/injection, schedule: Q01DX011 (ip), vehicle: carboxymethylcellulose (CMC)
[6] = dose: 1.0 mg/kg/injection, schedule: Q01DX011 (ip), vehicle: saline
[7] = dose: 2.0 mg/kg/injection, schedule: Q01DX011 (ip), vehicle: saline

Ic1ncnc2nc[nH]c12
T/C (dose: 2.5 mg/kg/injection, schedule: Q01DX011 (ip), vehicle: carboxymethylcellulose (CMC)): 90 % of control
T/C (dose: 3.2 mg/kg/injection, schedule: Q01DX011 (oral), vehicle: carboxymethylcellulose (CMC)): 78 % of control
T/C (dose: 5.0 mg/kg/injection, schedule: Q01DX011 (ip), vehicle: carboxymethylcellulose (CMC)): 90 % of control
T/C (dose: 7.5 mg/kg/injection, schedule: Q01DX011 (oral), vehicle: carboxymethylcellulose (CMC)): 41 % of control
T/C (dose: 15.0 mg/kg/injection, schedule: Q01DX011 (oral), vehicle: carboxymethylcellulose (CMC)): 14 % of control
T/C (dose: 62.5 mg/kg/injection, schedule: Q01DX011 (ip), vehicle: carboxymethylcellulose (CMC)): 21 % of control

O=C(Nc1cccc(C2=NCCN2)c1)c1ccc(N=Nc2ccc(C(=O)Nc3cccc(C4=NCCN4)c3)cc2)cc1
T/C [1]: 81 % of control
T/C [2]: 70 % of control
T/C [3]: 68 % of control
T/C [4]: 70 % of control

CCCCn1cnc2c(SC(C)C)nc(N)nc21
T/C (dose: 1.56 mg/kg/injection, schedule: Q01DX011 (ip), vehicle: methylcellulose (MC)): 64 % of control
T/C (dose: 3.12 mg/kg/injection, schedule: Q01DX011 (ip), vehicle: methylcellulose (MC)): 57 % of control
T/C (dose: 6.25 mg/kg/injection, schedule: Q01DX011 (ip), vehicle: methylcellulose (MC)): 14 % of control and 24 % of control
T/C (dose: 12.5 mg/kg/injection, schedule: Q01DX011 (ip), vehicle: methylcellulose (MC)): 3 % of control and 8 % of control

CCN(CC)Cc1nc2c(c(=O)n(C)c(=O)n2C)n1C
T/C [2]: 93 % of control
T/C [3]: 54 % of control
T/C [4]: 40 % of control

CNC(C)=O
T/C (dose: 125.0 mg/kg/injection, schedule: Q01DX011 (ip), vehicle: carboxymethylcellulose (CMC)): 79 % of control and 86 % of control
T/C (dose: 250.0 mg/kg/injection, schedule: Q01DX011 (ip), vehicle: carboxymethylcellulose (CMC)): 104 % of control and 85 % of control
T/C (dose: 1000.0 mg/kg/injection, schedule: Q01DX011 (ip), vehicle: carboxymethylcellulose (CMC)): 60 % of control and 82 % of control

NC(N)=Nc1nc2ccccc2s1
T/C (dose: 6.25 mg/kg/injection, schedule: Q01DX011 (ip), vehicle: carboxymethylcellulose (CMC)): 108 % of control
T/C (dose: 6.25 mg/kg/injection, schedule: Q01DX011 (ip), vehicle: other): 84 % of control
T/C (dose: 6.25 mg/kg/injection, schedule: Q01DX011 (ip), vehicle: water): 105 % of control
T/C (dose: 12.5 mg/kg/injection, schedule: Q01DX011 (ip), vehicle: carboxymethylcellulose (CMC)): 53 % of control
T/C (dose: 25.0 mg/kg/injection, schedule: Q01DX011 (ip), vehicle: other): 90 % of control
T/C (dose: 25.0 mg/kg/injection, schedule: Q01DX011 (ip), vehicle: water): 84 % of control
T/C (dose: 50.0 mg/kg/injection, schedule: Q01DX011 (ip), vehicle: water): 48 % of control

O=C(O)c1cccc2c3c(cc([N+](=O)[O-])c12)CCCC3
T/C (dose: 0.18 mg/kg/injection, schedule: Q01DX011 (ip), vehicle: carboxymethylcellulose (CMC)): 101 % of control
T/C (dose: 0.37 mg/kg/injection, schedule: Q01DX011 (ip), vehicle: carboxymethylcellulose (CMC)): 97 % of control
T/C (dose: 1.5 mg/kg/injection, schedule: Q01DX011 (ip), vehicle: carboxymethylcellulose (CMC)): 85 % of control

C[C@]12CC[C@H](O)CC1=CC[C@@H]1[C@@H]2[C@@H](O)C[C@@]2(C)[C@H]1CC[C@]2(C)O
T/C (dose: 100.0 mg/kg/injection, schedule: Q01DX011 (sc), vehicle: steriod suspending solution): 96 % of control
T/C (dose: 300.0 mg/kg/injection, schedule: Q01DX011 (sc), vehicle: steriod suspending solution): 93 % of control

Cn1c(=O)c2c(nc(N/N=C/c3cccc(Br)c3)n2C)n(C)c1=O
T/C (dose: 30.0 mg/kg/injection, schedule: Q01DX011 (ip), vehicle: carboxymethylcellulose (CMC)): 93 % of control
T/C [5]: 111 % of control
T/C (dose: 120.0 mg/kg/injection, schedule: Q01DX011 (ip), vehicle: carboxymethylcellulose (CMC)): 88 % of control

CCCCCCCCCCCC(=O)N(CC)CC
T/C (dose: 15.6 mg/kg/injection, schedule: Q01DX011 (ip), vehicle: other): 92 % of control
T/C (dose: 31.2 mg/kg/injection, schedule: Q01DX011 (ip), vehicle: other): 82 % of control
T/C (dose: 62.5 mg/kg/injection, schedule: Q01DX011 (ip), vehicle: other): 84 % of control

CS(=O)(=O)OCC(=O)NCCNC(=O)COS(C)(=O)=O
T/C (dose: 8.75 mg/kg/injection, schedule: Q01DX011 (ip), vehicle: carboxymethylcellulose (CMC)): 107 % of control
T/C (dose: 17.5 mg/kg/injection, schedule: Q01DX011 (ip), vehicle: carboxymethylcellulose (CMC)): 50 % of control
T/C (dose: 35.0 mg/kg/injection, schedule: Q01DX011 (ip), vehicle: carboxymethylcellulose (CMC)): 49 % of control
T/C (dose: 40.0 mg/kg/injection, schedule: Q01DX011 (ip), vehicle: carboxymethylcellulose (CMC)): 61 % of control
T/C [5]: 20 % of control
T/C (dose: 70.0 mg/kg/injection, schedule: Q01DX011 (ip), vehicle: carboxymethylcellulose (CMC)): 12 % of control
T/C (dose: 95.0 mg/kg/injection, schedule: Q01DX011 (ip), vehicle: carboxymethylcellulose (CMC)): 9 % of control
T/C (dose: 140.0 mg/kg/injection, schedule: Q01DX011 (ip), vehicle: carboxymethylcellulose (CMC)): 2 % of control and 6 % of control
T/C (dose: 210.0 mg/kg/injection, schedule: Q01DX011 (ip), vehicle: carboxymethylcellulose (CMC)): 7 % of control

[N-]=[N+]=C1N=CN=C1c1ncn[nH]1
T/C (dose: 25.0 mg/kg/injection, schedule: Q01DX011 (ip), vehicle: carboxymethylcellulose (CMC)): 103 % of control

CCC(C)Cn1cnc2c(SCc3ccccn3)nc(N)nc21 (configuration not stated)
T/C (dose: 16.2 mg/kg/injection, schedule: Q01DX011 (ip), vehicle: methylcellulose (MC)): 37 % of control
T/C (dose: 32.5 mg/kg/injection, schedule: Q01DX011 (ip), vehicle: methylcellulose (MC)): 32 % of control
T/C (dose: 65.0 mg/kg/injection, schedule: Q01DX011 (ip), vehicle: methylcellulose (MC)): 23 % of control and 29 % of control

CCCCNc1ncnc2c1cnn2C
T/C (dose: 4.0 mg/kg/injection, schedule: Q01DX011 (ip), vehicle: carboxymethylcellulose (CMC)): 96 % of control
T/C (dose: 8.0 mg/kg/injection, schedule: Q01DX011 (ip), vehicle: carboxymethylcellulose (CMC)): 84 % of control
T/C (dose: 16.0 mg/kg/injection, schedule: Q01DX011 (ip), vehicle: carboxymethylcellulose (CMC)): 52 % of control
T/C (dose: 31.25 mg/kg/injection, schedule: Q01DX011 (ip), vehicle: carboxymethylcellulose (CMC)): 30 % of control
T/C (dose: 32.0 mg/kg/injection, schedule: Q01DX011 (ip), vehicle: carboxymethylcellulose (CMC)): 20 % of control

CC(=O)c1cccc(NC2C(N)C(NC(=O)N(C)C)(C(C)O)C(C)(O)C2(O)COC(=O)c2c(C)cccc2O)c1 (configuration not stated)
T/C (dose: 0.25 mg/kg/injection, schedule: Q01DX011 (ip), vehicle: saline): 36 % of control
T/C (dose: 0.5 mg/kg/injection, schedule: Q01DX011 (ip), vehicle: saline): 83 % of control
T/C [6]: 67 % of control
T/C [7]: 24 % of control

Cn1c(Cl)nc2nc(Cl)nc(Cl)c21
T/C (dose: 7.5 mg/kg/injection, schedule: Q01DX011 (ip), vehicle: carboxymethylcellulose (CMC)): 110 % of control

N#CSc1ncnc2nc[nH]c12
T/C (dose: 0.4 mg/kg/injection, schedule: Q01DX011 (ip), vehicle: water): 67 % of control
T/C (dose: 1.0 mg/kg/injection, schedule: Q01DX011 (ip), vehicle: alkali diluted with saline): 20 % of control and 33 % of control
T/C [6]: 10 % of control
T/C (dose: 1.3 mg/kg/injection, schedule: Q01DX011 (ip), vehicle: water): 8 % of control
T/C (dose: 1.75 mg/kg/injection, schedule: Q01DX011 (ip), vehicle: water): 4 % of control
T/C (dose: 2.0 mg/kg/injection, schedule: Q01DX011 (ip), vehicle: alkali diluted with saline): 1 % of control and 11 % of control
T/C [7]: 1 % of control
T/C (dose: 4.0 mg/kg/injection, schedule: Q01DX011 (ip), vehicle: alkali diluted with saline): 2 % of control
T/C (dose: 4.0 mg/kg/injection, schedule: Q01DX011 (ip), vehicle: saline): 1 % of control
T/C (dose: 7.0 mg/kg/injection, schedule: Q01DX011 (ip), vehicle: water): 1 % of control
T/C (dose: 8.0 mg/kg/injection, schedule: Q01DX011 (ip), vehicle: saline): 1 % of control

CC(=O)Nc1nc(SCc2ccccc2)c2ncn(C(C)=O)c2n1
T/C (dose: 7.5 mg/kg/injection, schedule: Q01DX011 (ip), vehicle: methylcellulose (MC)): 53 % of control
T/C [1]: 4 % of control
T/C [2]: 2 % of control

O=C(O)C1CCCN1c1ncnc2nc[nH]c12 (configuration not stated)
T/C (dose: 25.0 mg/kg/injection, schedule: Q01DX011 (ip), vehicle: saline): 115 % of control
T/C (dose: 75.0 mg/kg/injection, schedule: Q01DX011 (ip), vehicle: saline): 104 % of control
